Results reported in US7943770B2, “Fused quinoline derivative and use thereof” (Takeda Pharmaceutical Company Limited, priority 2004, dated 2011).

Molecular target: T1, hNK2 receptor (Homo sapiens, UniProt P21452)
T1 construct: host or cells: CHO cells
T1 sequence (P21452 1-398): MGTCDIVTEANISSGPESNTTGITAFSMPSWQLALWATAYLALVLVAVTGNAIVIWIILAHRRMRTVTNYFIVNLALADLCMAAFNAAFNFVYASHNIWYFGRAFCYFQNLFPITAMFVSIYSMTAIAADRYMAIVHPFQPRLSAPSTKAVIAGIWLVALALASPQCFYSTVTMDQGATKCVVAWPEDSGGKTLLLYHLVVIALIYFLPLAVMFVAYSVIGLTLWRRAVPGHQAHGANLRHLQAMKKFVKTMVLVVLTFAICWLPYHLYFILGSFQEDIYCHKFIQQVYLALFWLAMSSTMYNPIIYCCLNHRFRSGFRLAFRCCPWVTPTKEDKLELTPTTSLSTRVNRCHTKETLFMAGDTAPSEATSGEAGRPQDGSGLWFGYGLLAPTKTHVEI
Experiment: Radio-ligand ([125I]-NKA) receptor binding inhibitory activity using membrane fraction of hNK2 receptor-expressing CHO cell
Conditions: membrane fraction of hNK2 receptor-expressing CHO cells, 25° C., 30 min
Procedure: hNK2 receptor-expressing CHO cells (produced by EUROSCREEN) were cultured in HAM-F12 medium containing 400 μg/ml Geneticin, 100 U/mL penicillin, 100 μg/mL streptomycin and 10% inactivated serum. The medium was removed and adhered cells were washed with PBS, and PBS containing 5 mM EDTA was added to detach the cells from the flask. The cells were recovered by centrifugation, suspended in suspending buffer A (15 mM Tris-HCl (pH 7.5), 2 mM MgCl2, 0.3 mM EDTA, 1 mM EGTA), disrupted by POLYTRON homogenizer (manufactured by KINEMATICA) and centrifuged at 800×g for 10 min. The supernatant was recovered and ultracentrifuged at 100000×g for 25 min. The precipitated fraction was suspended in suspending buffer B (7.5 mM Tris-HCl (pH 7.5), 12.5 mM MgCl2, 0.3 mM EDTA, 1 mM, […], 250 mM Sucrose) and cryopreserved (at −80° C.) as a receptor specimen.
An assay buffer (50 μl, 50 mM Tris-HCl (pH 7.4), 0.02% bovine serum albumin, 2 μg/mL chymostatin, 40 μg/mL bacitracin, 40 μg/mL APMSF, 3 mM MnCl2) was added to a 96 well microassay plate. Thereto was added a 20 μg/mL membrane specimen suspended in the assay buffer (50 μL). An assay buffer (50 μL) containing 2% dimethyl sulfoxide was added to examine the total binding, 4 unlabeled NKA (produced by Peptide Institute, Inc.) solution (50 μL) diluted with an assay buffer containing 2% dimethyl sulfoxide was added to examine non-specific binding, and a test compound diluted with an assay buffer (50 containing 2% dimethyl sulfoxide) was added to examine the binding inhibitory activity of the test compound. Furthermore, […] [^125I]-NKA (produced by Amersham Biosciences) solution (50 μL) was added to each well.
After reaction at 25° C. for 30 min., the reaction was stopped by rapid filtration on a unifilter plate (GF/C) (manufactured by PerkinElmer) using a cell harvester (manufactured by PerkinElmer) and the cells were washed 5 times with 50 mM Tris-HCl (pH 7.4) buffer containing 0.02% bovine serum albumin (250 μL). The GF/C filter plate was dried and 20 μl, of MicroScinti-O (manufactured by PerkinElmer) was added and the radioactivity was measured in Topcount (manufactured by PerkinElmer). The GF/C filter plate, which had been immersed in 0.3% polyethyleneimine for one day, was used. Specific binding is shown by the value obtained by subtracting non-specific binding from the total binding. The binding inhibitory activity of the test compound is shown by the ratio of the value obtained by subtracting the measured value associated with the addition of the test compound from the total binding, to the value of the specific binding.

Row | Structure (SMILES) | IC50
1 | CCNC(=O)N[C@@H]1CCCC[C@@H]1C(=O)N1CC[C@@H]2[C@H](c3ncc[nH]3)Nc3ccccc3[C@@H]21 [Example 295, N-Ethyl-N′-((1R,2S)-2-{[(3aR,4R,9bR)-4-(1H-imidazol-2-yl)-2,3,3a,4,5,9b-hexahydro-1H-pyrrolo[3,2-c]quinolin-1-yl]carbonyl}cyclohexyl)urea] | < 10 nM
2 | O=C(N[C@@H]1CCCC[C@@H]1C(=O)N1CC[C@@H]2[C@H](c3ccc(F)cc3)Nc3ccccc3[C@@H]21)c1ccccc1 (relative stereo) [Example 9, N-((1R,2S)-2-{[(3aR*,4R*,9bR*)-4-(4-Fluorophenyl)-2,3,3a,4,5,9b-hexahydro-1H-pyrrolo[3,2-c]quinolin-1-yl]carbonyl}cyclohexyl)benzamide] | < 10 nM
3 | COC[C@@H]1Nc2ccccc2[C@H]2[C@@H]1CCN2C(=O)[C@H]1CCCC[C@H]1NC(=O)c1nc2ccccc2[nH]1 [Example 237, N-((1R,2S)-2-{[(3aR,4R,9bR)-4-(Methoxymethyl)-2,3,3a,4,5,9b-hexahydro-1H-pyrrolo[3,2-c]quinolin-1-yl]carbonyl}cyclohexyl)-1H-benzimidazole-2-carboxamide] | < 1 nM
4 | COC[C@@H]1Nc2ccccc2[C@H]2[C@@H]1CCN2C(=O)[C@H]1CCCC[C@H]1NC(=O)c1ccc(N2N=C(C)CC2=O)cc1 [Example 252, N-((1R,2S)-2-{[(3aR,4R,9bR)-4-(Methoxymethyl)-2,3,3a,4,5,9b-hexahydro-1H-pyrrolo[3,2-c]quinolin-1-yl]carbonyl}cyclohexyl)-4-(3-methyl-5-oxo-4,5-dihydro-1H-pyrazol-1-yl)benzamide] | < 1 nM
5 | COC[C@@H]1Nc2ccccc2[C@H]2[C@@H]1CCN2C(=O)[C@H]1CCCC[C@H]1NC(=O)c1cccc(C#N)c1 [Example 233, 3-Cyano-N-((1R,2S)-2-{[(3aR,4R,9bR)-4-(methoxymethyl)-2,3,3a,4,5,9b-hexahydro-1H-pyrrolo[3,2-c]quinolin-1-yl]carbonyl}cyclohexyl)benzamide] | < 10 nM
6 | COC[C@@H]1Nc2ccccc2[C@H]2[C@@H]1CCN2C(=O)[C@H]1CCCC[C@H]1NC(=O)c1ccc(-c2ncc[nH]2)cc1 [Example 281, 4-(1H-imidazol-2-yl)-N-((1R,2S)-2-{[(3aR,4R,9bR)-4-(methoxymethyl)-2,3,3a,4,5,9b-hexahydro-1H-pyrrolo[3,2-c]quinolin-1-yl]carbonyl}cyclohexyl)benzamide] | < 1 nM
7 | COC[C@@H]1Nc2ccccc2[C@H]2[C@@H]1CCN2C(=O)[C@H]1CCCC[C@H]1NC(=O)c1c[nH]c2ccccc12 [Example 244, N-((1R,2S)-2-{[(3aR,4R,9bR)-4-(Methoxymethyl)-2,3,3a,4,5,9b-hexahydro-1H-pyrrolo[3,2-c]quinolin-1-yl]carbonyl}cyclohexyl)-1H-indole-3-carboxamide] | < 10 nM
8 | COC[C@@H]1Nc2ccccc2[C@H]2[C@@H]1CCN2C(=O)[C@H]1CCCC[C@H]1NC(=O)c1ccc(C#N)c(OC)c1 [Example 274, 4-Cyano-3-methoxy-N-((1R,2S)-2-{[(3aR,4R,9bR)-4-(methoxymethyl)-2,3,3a,4,5,9b-hexahydro-1H-pyrrolo[3,2-c]quinolin-1-yl]carbonyl}cyclohexyl)benzamide] | < 10 nM
9 | COC[C@@H]1Nc2ccccc2[C@H]2[C@@H]1CCN2C(=O)[C@H]1CCCC[C@H]1NC(=O)c1ccc(CNC(C)=O)cc1 [Example 263, 4-[(Acetylamino)methyl]-N-((1R,2S)-2-{[(3aR,4R,9bR)-4-(methoxymethyl)-2,3,3a,4,5,9b-hexahydro-1H-pyrrolo[3,2-c]quinolin-1-yl]carbonyl}cyclohexyl)benzamide] | < 10 nM
10 | COc1ccc(C(=O)N[C@@H]2CCCC[C@@H]2C(=O)N2CC[C@@H]3[C@H](c4ccccc4)Nc4ccccc4[C@@H]32)cc1OC [Example 104, 3,4-Dimethoxy-N-((1R,2S)-2-{[(3aR,4R,9bR)-4-phenyl-2,3,3a,4,5,9b-hexahydro-1H-pyrrolo[3,2-c]quinolin-1-yl]carbonyl}cyclohexyl)benzamide] | < 1 nM
11 | O=C(Nc1ccc(Cl)cc1)N[C@@H]1CCCC[C@@H]1C(=O)N1CC[C@@H]2[C@H](c3ccccc3)Nc3ccccc3[C@@H]21 [Example 136, N-(4-Chlorophenyl)-N′-((1R,2S)-2-{[(3aR,4R,9bR)-4-phenyl-2,3,3a,4,5,9b-hexahydro-1H-pyrrolo[3,2-c]quinolin-1-yl]carbonyl}cyclohexyl)urea] | < 10 nM
12 | COC[C@@H]1Nc2ccccc2[C@H]2[C@@H]1CCN2C(=O)[C@H]1CCCC[C@H]1NC(=O)c1ccc2c(c1)CCO2 [Example 248, N-((1R,2S)-2-{[(3aR,4R,9bR)-4-(Methoxymethyl)-2,3,3a,4,5,9b-hexahydro-1H-pyrrolo[3,2-c]quinolin-1-yl]carbonyl}cyclohexyl)-2,3-dihydro-1-benzofuran-5-carboxamide] | < 1 nM
13 | O=C(N[C@@H]1CCCC[C@@H]1C(=O)N1CC[C@@H]2[C@H](c3ncc[nH]3)Nc3ccccc3[C@@H]21)c1ccccc1 [Example 81, N-((1R,2S)-2-{[(3aR,4R,9bR)-4-(1H-imidazol-2-yl)-2,3,3a,4,5,9b-hexahydro-1H-pyrrolo[3,2-c]quinolin-1-yl]carbonyl}cyclohexyl)benzamide] | < 1 nM
14 | CCC[C@@H]1Nc2ccccc2[C@H]2[C@@H]1CCN2C(=O)[C@H]1CCCC[C@H]1NC(=O)Nc1ccccc1 [Example 195, N-Phenyl-N′-((1R,2S)-2-{[(3aR,4S,9bR)-4-propyl-2,3,3a,4,5,9b-hexahydro-1H-pyrrolo[3,2-c]quinolin-1-yl]carbonyl}cyclohexyl)urea] | < 1 nM
15 | O=C(/C=C/c1ccc(C(F)(F)F)cc1)N[C@@H]1CCCC[C@@H]1C(=O)N1CC[C@@H]2[C@H](c3ncc[nH]3)Nc3ccccc3[C@@H]21 [Example 294, (2E)-N-((1R,2S)-2-{[(3aR,4R,9bR)-4-(1H-Imidazol-2-yl)-2,3,3a,4,5,9b-hexahydro-1H-pyrrolo[3,2-c]quinolin-1-yl]carbonyl}cyclohexyl)-3-[4-(trifluoromethyl)phenyl]acrylamide] | < 1 nM
16 | COC[C@@H]1Nc2ccccc2[C@H]2[C@@H]1CCN2C(=O)[C@H]1CCCC[C@H]1NC(=O)c1ccc(-c2csc(C)n2)cc1 [Example 261, N-((1R,2S)-2-{[(3aR,4R,9bR)-4-(Methoxymethyl)-2,3,3a,4,5,9b-hexahydro-1H-pyrrolo[3,2-c]quinolin-1-yl]carbonyl}cyclohexyl)-4-(2-methyl-1,3-thiazol-4-yl)benzamide] | < 1 nM
17 | CCC(=O)N[C@@H]1CCCC[C@@H]1C(=O)N1CC[C@@H]2[C@H](c3ccccc3)Nc3ccccc3[C@@H]21 [Example 86, N-((1R,2S)-2-{[(3aR,4R,9bR)-4-Phenyl-2,3,3a,4,5,9b-hexahydro-1H-pyrrolo[3,2-c]quinolin-1-yl]carbonyl}cyclohexyl)propanamide] | < 10 nM
18 | O=C(N[C@@H]1CCCC[C@@H]1C(=O)N1CC[C@@H]2[C@H](c3ncc[nH]3)Nc3ccccc3[C@@H]21)c1ccc(F)c(Cl)c1 [Example 301, 3-Chloro-4-fluoro-N-((1R,2S)-2-{[(3aR,4R,9bR)-4-(1H-imidazol-2-yl)-2,3,3a,4,5,9b-hexahydro-1H-pyrrolo[3,2-c]quinolin-1-yl]carbonyl}cyclohexyl)benzamide] | < 1 nM
19 | COC[C@@H]1Nc2ccccc2[C@H]2[C@@H]1CCN2C(=O)[C@H]1CCCC[C@H]1NC(=O)c1ccc2[nH]c(C)nc2c1 [Example 279, N-((1R,2S)-2-{[(3aR,4R,9bR)-4-(Methoxymethyl)-2,3,3a,4,5,9b-hexahydro-1H-pyrrolo[3,2-c]quinolin-1-yl]carbonyl}cyclohexyl)-2-methyl-1H-benzimidazole-5-carboxamide] | < 1 nM
